Test results: patent publication US20240101531A1, “PYRIDINAMINE DERIVATIVES AND THEIR USE AS POTASSIUM CHANNEL MODULATORS” (Xenon Pharmaceuticals Inc., priority 2022, published 2024)
Where a name gives a salt, the structure may show the parent alone.

Target: human KV7.2/KV7.3 (Homo sapiens (Human), UniProt O43525+O43526)
Assay: Potassium flux assay (IPG-2 AM dye)
Format: cell-based
Details: TREX HEK 293 or HEK 293 cells expressing human KV7.2/KV7.3; arithmetic mean values
In short: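 HEK 293 or TREX HEK 293 cells stably expressing human KV7.2/KV7.3 (tetracycline-induced where needed), loaded with IPG-2 AM, then compound for 20 min at room temperature. Flux triggered by K challenge buffer (10 mM KCl, pH 7.4), read at 530/558 nm; EC50 from 16-point 2-fold series from 30 μM, normalised to DMSO and reference modulator.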

Compound	EC50 [µM]
Clc1ccc(Nc2nccc3ccoc23)cn1 [Example 16, N-(6-chloropyridin-3-yl)furo[2,3-c]pyridin-7-amine formate]	1 to 10
C[C@@H](COc1ccc2c(Nc3ccc(Cl)nc3)nccc2c1)c1cnn(C)c1 [Example 159, (R)—N-(6-chloropyridin-3-yl)-6-(2-(1-methyl-1H-pyrazol-4-yl)propoxy)isoquinolin-1-amine]	1 to 10
Cc1ncc(Nc2nccc3cc(OCc4cncnc4)ccc23)cn1 [Example 308, N-(2-methylpyrimidin-5-yl)-6-(pyrimidin-5-ylmethoxy)isoquinolin-1-amine]	1 to 10
Clc1ccc(Nc2nccc3cc(Oc4cccnc4)ccc23)cn1 [Example 266, N-(6-chloropyridin-3-yl)-6-(pyridin-3-yloxy)isoquinolin-1-amine]	1 to 10
Oc1ccc2c(Nc3ccc(Cl)nc3)nccc2c1 [Example 69, 1-((6-chloropyridin-3-yl)amino)isoquinolin-6-ol]	10 to 30
Clc1ccc(Nc2nccc3cc(OCCN4CC5(CCO5)C4)ccc23)cn1 [Example 70, 6-(2-(1-oxa-6-azaspiro[3.3]heptan-6-yl)ethoxy)-N-(6-chloropyridin-3-yl)isoquinolin-1-amine]	10 to 30
CC1(C)CC[C@H](COc2ccc3c(Nc4ccc(Cl)nc4)nccc3c2)O1 [Example 416, (R)-N-(6-chloropyridin-3-yl)-6-((5,5-dimethyltetrahydrofuran-2-yl)methoxy)isoquinolin-1-amine]	1 to 10
OC1(COc2ccc3c(Nc4ccc(Cl)nc4)nccc3c2)COC1 [Example 394, 3-(((1-((6-chloropyridin-3-yl)amino)isoquinolin-6-yl)oxy)methyl)oxetan-3-ol]	1 to 10
C[C@]1(O)CC[C@H](Oc2ccc3c(Nc4ccc(Cl)nc4)nccc3c2)CC1 [Example 264, trans-4-((1-((6-chloropyridin-3-yl)amino)isoquinolin-6-yl)oxy)-1-methylcyclohexan-1-ol]	1 to 10
Cn1ncc(COc2ccc3c(Nc4ccc(Cl)nc4)nccc3c2)c1Cl [Example 291, 6-((5-chloro-1-methyl-1H-pyrazol-4-yl)methoxy)-N-(6-chloropyridin-3-yl)isoquinolin-1-amine]	1 to 10
CC[C@@H](OC)c1ccc2c(Nc3ccc(Cl)nc3)nccc2c1 [Example 130, (R)—N-(6-chloropyridin-3-yl)-6-(1-methoxypropyl)isoquinolin-1-amine]	10 to 30
CC1(C)CCC(COc2ccc3c(Nc4ccc(Cl)nc4)nccc3c2)O1 (stereo not drawn) [Example 6, N-(6-chloropyridin-3-yl)-6-((5,5-dimethyltetrahydrofuran-2-yl)methoxy)isoquinolin-1-amine]	1 to 10
CS(=O)(=Nc1ccc2c(Nc3ccc(Cl)nc3)nccc2c1)C1COC1 (stereo not drawn) [Example 275, ((1-((6-chloropyridin-3-yl)amino)isoquinolin-6-yl)imino)(methyl)(oxetan-3-yl)-λ^6-sulfanone]	1 to 10
Clc1ccc(Nc2nccc3cc(OCC4(OCc5ccncc5)CC4)ccc23)cn1 [Example 362, N-(6-chloropyridin-3-yl)-6-((1-(pyridin-4-ylmethoxy)cyclopropyl)methoxy)isoquinolin-1-amine]	1 to 10
Clc1ccc(Nc2nccc3cc(COc4cn[nH]c4)ccc23)cn1 [Example 304, 6-(((1H-pyrazol-4-yl)oxy)methyl)-N-(6-chloropyridin-3-yl)isoquinolin-1-amine]	1 to 10
C[C@@]1(COc2ccc3c(Nc4ccc(Cl)nc4)nccc3c2)CCCO1 [Example 303, (S)—N-(6-chloropyridin-3-yl)-6-((2-methyltetrahydrofuran-2-yl)methoxy)isoquinolin-1-amine]	1 to 10
Cc1ccc(Nc2nccc3cc(OCC4CC4)ccc23)cn1 [Example 28, 6-(cyclopropylmethoxy)-N-(6-methylpyridin-3-yl)isoquinolin-1-amine]	1 to 10
FC(F)C1(COc2ccc3c(Nc4ccc(Cl)nc4)nccc3c2)CC1 [Example 326, N-(6-chloropyridin-3-yl)-6-((1-(difluoromethyl)cyclopropyl)methoxy)isoquinolin-1-amine]	< 1
